≈ marks a conversion by molar mass, not a printed value.
Columns and labels:
Format in all cases: functional
Candida albicans [1] = assay: Antifungal activity against Candida albicans; details: Candida albicans
Candida parapsilosis [2] = assay: Antifungal activity against Candida parapsilosis; details: Lodderomyces parapsilosis
Candida tropicalis [3] = assay: Antifungal activity against Candida tropicalis; details: Candida tropicalis
Cryptococcus neoformans [4] = assay: Antifungal activity against Cryptococcus neoformans; details: Cryptococcus neoformans
Pichia kudriavzevii = assay: Antifungal activity against Candida krusei
Candida tropicalis [5] = assay: Antifungal activity against Candida tropicalis after 24 hrs by microbroth dilution method
Trichophyton rubrum [6] = assay: Antifungal activity against Trichophyton rubrum after 24 hrs by microbroth dilution method
Microsporum canis [7] = assay: Antifungal activity against Microsporum canis after 24 hrs by microbroth dilution method
Fonsecaea compacta [8] = assay: Antifungal activity against Fonsecaea compacta after 24 hrs by microbroth dilution method
Aspergillus fumigatus [9] = assay: Antifungal activity against Aspergillus fumigatus after 24 hrs by microbroth dilution method
Candida tropicalis [10] = assay: Potency index, ratio of fluconazole MIC to test compound MIC for Candida tropicalis
Candida albicans [11] = assay: Potency index, ratio of fluconazole MIC to test compound MIC for Candida albicans ATCC 76615
Cryptococcus neoformans [12] = assay: Potency index, ratio of fluconazole MIC to test compound MIC for activity against Cryptococcus neoformans ATCC 32609
Trichophyton rubrum [13] = assay: Potency index, ratio of fluconazole MIC to test compound MIC for Trichophyton rubrum
Microsporum canis [14] = assay: Potency index, ratio of fluconazole MIC to test compound MIC for Microsporum canis
Fonsecaea compacta [15] = assay: Potency index, ratio of fluconazole MIC to test compound MIC for Fonsecaea compacta
Aspergillus fumigatus [16] = assay: Potency index, ratio of fluconazole MIC to test compound MIC for Aspergillus fumigatus
Candida albicans [17] = assay: Antifungal activity against fluconalzole-susceptible Candida albicans after 24 hrs
Candida parapsilosis [18] = assay: Antifungal activity against fluconalzole-susceptible Candida parapsilosis after 24 hrs; details: Lodderomyces parapsilosis
Candida albicans [19] = assay: Antifungal activity against Candida albicans after 24 hrs by NCCLS protocol based method
Candida tropicalis [20] = assay: Antifungal activity against Candida tropicalis after 24 hrs by NCCLS protocol based method
Cryptococcus neoformans [21] = assay: Antifungal activity against Cryptococcus neoformans after 72 hrs by NCCLS protocol based method
Trichophyton rubrum [22] = assay: Antifungal activity against Trichophyton rubrum after 7 days by NCCLS protocol based method; details: 168 h
Nannizzia gypsea = assay: Antifungal activity against Microsporum gypseum after 7 days by NCCLS protocol based method; details: 168 h

Cc1ccc(NC(=O)CN(C)CC(O)(Cn2cncn2)c2ccc(F)cc2F)cc1C (stereo not given)
MIC80 (Candida albicans [1]): 0.0156 µg/mL (≈ 0.0363 µM) | MIC80 (Candida parapsilosis [2]): 0.25 to 1 µg/mL (≈ 0.582 to 2.33 µM) | MIC80 (Candida tropicalis [3]): 0.25 to 1 µg/mL (≈ 0.582 to 2.33 µM) | MIC80 (Cryptococcus neoformans [4]): 0.0156 µg/mL (≈ 0.0363 µM) | MIC80 (Pichia kudriavzevii): 0.25 to 1 µg/mL (≈ 0.582 to 2.33 µM)

OC(CN(Cc1ccccc1Br)C1CC1)(Cn1cncn1)c1ccc(F)cc1F (stereo not given)
MIC80 (Candida tropicalis [5]): 0.125 µg/mL (≈ 0.27 µM) | MIC80 (Trichophyton rubrum [6]): 0.125 µg/mL (≈ 0.27 µM) | MIC80 (Microsporum canis [7]): 0.125 µg/mL (≈ 0.27 µM) | MIC80 (Fonsecaea compacta [8]): 0.125 µg/mL (≈ 0.27 µM) | MIC80 (Aspergillus fumigatus [9]): 0.125 µg/mL (≈ 0.27 µM) | Ratio (Candida tropicalis [10]): 4 | Ratio (Candida albicans [11]): 4 | Ratio (Cryptococcus neoformans [12]): 4 | Ratio (Trichophyton rubrum [13]): 4 | Ratio (Microsporum canis [14]): 4 | Ratio (Fonsecaea compacta [15]): 4 | Ratio (Aspergillus fumigatus [16]): 4

Cc1ccc(CN(CC(O)(Cn2cncn2)c2ccc(F)cc2F)C2CC2)cc1 (stereo not given)
MIC80 (Candida tropicalis [5]): 0.125 µg/mL (≈ 0.314 µM) | MIC80 (Trichophyton rubrum [6]): 0.125 µg/mL (≈ 0.314 µM) | MIC80 (Microsporum canis [7]): 0.125 µg/mL (≈ 0.314 µM) | MIC80 (Fonsecaea compacta [8]): 0.125 µg/mL (≈ 0.314 µM) | MIC80 (Aspergillus fumigatus [9]): 0.125 µg/mL (≈ 0.314 µM) | Ratio (Candida tropicalis [10]): 4 | Ratio (Candida albicans [11]): 4 | Ratio (Cryptococcus neoformans [12]): 4 | Ratio (Trichophyton rubrum [13]): 4 | Ratio (Microsporum canis [14]): 4 | Ratio (Fonsecaea compacta [15]): 4 | Ratio (Aspergillus fumigatus [16]): 4

OC(Cn1cncn1)(Cn1cnc(SCc2ccccc2)n1)c1ccc(F)cc1F (stereo not given)
MIC (Candida albicans [17]): 0.063 to 1 µg/mL (≈ 0.147 to 2.33 µM) | MIC (Candida parapsilosis [18]): 0.063 to 1 µg/mL (≈ 0.147 to 2.33 µM)

CN(CC(=O)Nc1ccc(C(C)(C)C)cc1)CC(O)(Cn1cncn1)c1ccc(F)cc1F (stereo not given)
MIC80 (Candida albicans [1]): 0.0156 µg/mL (≈ 0.0341 µM) | MIC80 (Candida parapsilosis [2]): 0.25 to 1 µg/mL (≈ 0.546 to 2.19 µM) | MIC80 (Candida tropicalis [3]): 0.25 to 1 µg/mL (≈ 0.546 to 2.19 µM) | MIC80 (Cryptococcus neoformans [4]): 0.0156 µg/mL (≈ 0.0341 µM) | MIC80 (Pichia kudriavzevii): 0.25 to 1 µg/mL (≈ 0.546 to 2.19 µM)

CN(CC(=O)Nc1ccc(OC(F)(F)F)cc1)CC(O)(Cn1cncn1)c1ccc(F)cc1F (stereo not given)
MIC80 (Candida albicans [1]): 0.0156 µg/mL (≈ 0.0321 µM) | MIC80 (Candida parapsilosis [2]): 0.25 to 1 µg/mL (≈ 0.515 to 2.06 µM) | MIC80 (Candida tropicalis [3]): 0.25 to 1 µg/mL (≈ 0.515 to 2.06 µM) | MIC80 (Cryptococcus neoformans [4]): 0.0156 µg/mL (≈ 0.0321 µM) | MIC80 (Pichia kudriavzevii): 0.25 to 1 µg/mL (≈ 0.515 to 2.06 µM)

OC(Cn1cncn1)(Cn1cnc(SCc2ccc(Cl)cc2Cl)n1)c1ccc(F)cc1F (stereo not given)
MIC (Candida albicans [17]): 0.063 to 1 µg/mL (≈ 0.127 to 2.01 µM) | MIC (Candida parapsilosis [18]): 0.063 to 1 µg/mL (≈ 0.127 to 2.01 µM)

Cc1ccccc1OCCCN(C)CC(O)(Cn1cncn1)c1ccc(F)cc1F (stereo not given)
MIC (Candida albicans [19]): 0.001 to 0.016 µg/mL (≈ 0.0024 to 0.0384 µM) | MIC (Candida tropicalis [20]): 0.001 to 0.016 µg/mL (≈ 0.0024 to 0.0384 µM) | MIC (Cryptococcus neoformans [21]): 0.001 to 0.016 µg/mL (≈ 0.0024 to 0.0384 µM) | MIC (Trichophyton rubrum [22]): 0.001 to 0.016 µg/mL (≈ 0.0024 to 0.0384 µM) | MIC (Nannizzia gypsea): 0.001 to 0.016 µg/mL (≈ 0.0024 to 0.0384 µM)

CN(CCCOc1ccc(C(C)(C)C)cc1)CC(O)(Cn1cncn1)c1ccc(F)cc1F (stereo not given)
MIC (Candida albicans [19]): 0.001 to 0.016 µg/mL (≈ 0.00218 to 0.0349 µM) | MIC (Candida tropicalis [20]): 0.001 to 0.016 µg/mL (≈ 0.00218 to 0.0349 µM) | MIC (Cryptococcus neoformans [21]): 0.001 to 0.016 µg/mL (≈ 0.00218 to 0.0349 µM) | MIC (Trichophyton rubrum [22]): 0.001 to 0.016 µg/mL (≈ 0.00218 to 0.0349 µM) | MIC (Nannizzia gypsea): 0.001 to 0.016 µg/mL (≈ 0.00218 to 0.0349 µM)

Cc1cc(C)cc(NC(=O)CN(C)CC(O)(Cn2cncn2)c2ccc(F)cc2F)c1 (stereo not given)
MIC80 (Candida albicans [1]): 0.0156 µg/mL (≈ 0.0363 µM) | MIC80 (Candida parapsilosis [2]): 0.25 to 1 µg/mL (≈ 0.582 to 2.33 µM) | MIC80 (Candida tropicalis [3]): 0.25 to 1 µg/mL (≈ 0.582 to 2.33 µM) | MIC80 (Cryptococcus neoformans [4]): 0.0156 µg/mL (≈ 0.0363 µM) | MIC80 (Pichia kudriavzevii): 0.25 to 1 µg/mL (≈ 0.582 to 2.33 µM)

CN(CC(=O)Nc1ccc(Cl)cc1)CC(O)(Cn1cncn1)c1ccc(F)cc1F (stereo not given)
MIC80 (Candida albicans [1]): 0.0156 µg/mL (≈ 0.0358 µM) | MIC80 (Candida parapsilosis [2]): 0.25 to 1 µg/mL (≈ 0.574 to 2.29 µM) | MIC80 (Candida tropicalis [3]): 0.25 to 1 µg/mL (≈ 0.574 to 2.29 µM) | MIC80 (Cryptococcus neoformans [4]): 0.0156 µg/mL (≈ 0.0358 µM) | MIC80 (Pichia kudriavzevii): 0.25 to 1 µg/mL (≈ 0.574 to 2.29 µM)

OC(Cn1cncn1)(Cn1cnc(SCc2ccc(Br)cc2)n1)c1ccc(F)cc1F (stereo not given)
MIC (Candida albicans [17]): 0.063 to 1 µg/mL (≈ 0.124 to 1.97 µM) | MIC (Candida parapsilosis [18]): 0.063 to 1 µg/mL (≈ 0.124 to 1.97 µM)

OC(Cn1cncn1)(Cn1cnc(SCc2ccc(Cl)c(Cl)c2)n1)c1ccc(F)cc1F (stereo not given)
MIC (Candida albicans [17]): 0.063 to 1 µg/mL (≈ 0.127 to 2.01 µM) | MIC (Candida parapsilosis [18]): 0.063 to 1 µg/mL (≈ 0.127 to 2.01 µM)

CN(CCCOc1ccc(Cl)cc1)CC(O)(Cn1cncn1)c1ccc(F)cc1F (stereo not given)
MIC (Candida albicans [19]): 0.001 µg/mL (≈ 0.00229 µM) | MIC (Candida tropicalis [20]): 0.001 µg/mL (≈ 0.00229 µM) | MIC (Cryptococcus neoformans [21]): 0.001 µg/mL (≈ 0.00229 µM) | MIC (Trichophyton rubrum [22]): 0.001 µg/mL (≈ 0.00229 µM) | MIC (Nannizzia gypsea): 0.001 µg/mL (≈ 0.00229 µM)

OC(CN(Cc1ccccc1F)C1CC1)(Cn1cncn1)c1ccc(F)cc1F (stereo not given)
MIC80 (Candida tropicalis [5]): 0.125 µg/mL (≈ 0.311 µM) | MIC80 (Trichophyton rubrum [6]): 0.125 µg/mL (≈ 0.311 µM) | MIC80 (Microsporum canis [7]): 0.125 µg/mL (≈ 0.311 µM) | MIC80 (Fonsecaea compacta [8]): 0.125 µg/mL (≈ 0.311 µM) | MIC80 (Aspergillus fumigatus [9]): 0.125 µg/mL (≈ 0.311 µM) | Ratio (Candida tropicalis [10]): 4 | Ratio (Candida albicans [11]): 4 | Ratio (Cryptococcus neoformans [12]): 4 | Ratio (Trichophyton rubrum [13]): 4 | Ratio (Microsporum canis [14]): 4 | Ratio (Fonsecaea compacta [15]): 4 | Ratio (Aspergillus fumigatus [16]): 4

Cc1ccccc1CN(CC(O)(Cn1cncn1)c1ccc(F)cc1F)C1CC1 (stereo not given)
MIC80 (Candida tropicalis [5]): 0.125 µg/mL (≈ 0.314 µM) | MIC80 (Trichophyton rubrum [6]): 0.125 µg/mL (≈ 0.314 µM) | MIC80 (Microsporum canis [7]): 0.125 µg/mL (≈ 0.314 µM) | MIC80 (Fonsecaea compacta [8]): 0.125 µg/mL (≈ 0.314 µM) | MIC80 (Aspergillus fumigatus [9]): 0.125 µg/mL (≈ 0.314 µM) | Ratio (Candida tropicalis [10]): 4 | Ratio (Candida albicans [11]): 4 | Ratio (Cryptococcus neoformans [12]): 4 | Ratio (Trichophyton rubrum [13]): 4 | Ratio (Microsporum canis [14]): 4 | Ratio (Fonsecaea compacta [15]): 4 | Ratio (Aspergillus fumigatus [16]): 4

O=[N+]([O-])c1ccc(CSc2ncn(CC(O)(Cn3cncn3)c3ccc(F)cc3F)n2)cc1 (stereo not given)
MIC (Candida albicans [17]): 0.063 to 1 µg/mL (≈ 0.133 to 2.11 µM) | MIC (Candida parapsilosis [18]): 0.063 to 1 µg/mL (≈ 0.133 to 2.11 µM)

CN(CC(=O)Nc1cc(Cl)ccc1Cl)CC(O)(Cn1cncn1)c1ccc(F)cc1F (stereo not given)
MIC80 (Candida albicans [1]): 0.0156 µg/mL (≈ 0.0332 µM) | MIC80 (Candida parapsilosis [2]): 0.25 to 1 µg/mL (≈ 0.532 to 2.13 µM) | MIC80 (Candida tropicalis [3]): 0.25 to 1 µg/mL (≈ 0.532 to 2.13 µM) | MIC80 (Cryptococcus neoformans [4]): 0.0156 µg/mL (≈ 0.0332 µM) | MIC80 (Pichia kudriavzevii): 0.25 to 1 µg/mL (≈ 0.532 to 2.13 µM)

OC(CN(Cc1ccc(F)cc1)C1CC1)(Cn1cncn1)c1ccc(F)cc1F (stereo not given)
MIC80 (Candida tropicalis [5]): 0.125 µg/mL (≈ 0.311 µM) | MIC80 (Trichophyton rubrum [6]): 0.125 µg/mL (≈ 0.311 µM) | MIC80 (Microsporum canis [7]): 0.125 µg/mL (≈ 0.311 µM) | MIC80 (Fonsecaea compacta [8]): 0.125 µg/mL (≈ 0.311 µM) | MIC80 (Aspergillus fumigatus [9]): 0.125 µg/mL (≈ 0.311 µM) | Ratio (Candida tropicalis [10]): 4 | Ratio (Candida albicans [11]): 4 | Ratio (Cryptococcus neoformans [12]): 4 | Ratio (Trichophyton rubrum [13]): 4 | Ratio (Microsporum canis [14]): 4 | Ratio (Fonsecaea compacta [15]): 4 | Ratio (Aspergillus fumigatus [16]): 4

From ChEMBL document CHEMBL4396865, “Current advances of triazole alcohols derived from fluconazole: Design, in vitro and in silico studies” (2019)
